The text below walks through data of patent US11555031B2, “Compounds and methods for regulating insulin secretion” (The Broad Institute, Inc., priority 2017, dated 2023).

Molecules are shown by their SMILES.

The subject of one experiment is INS-1E cells. Kind of experiment: Luciferase Insulin Secretion Assay (proinsulin-Gaussia luciferase reporter). The class given is cell-based, rat. More on the design: key to Activity: Active: a compound is identified as active if the compound has a Z-score greater than 3 in the presence of 16.7 mM glucose; Partial activity indicates that the compound does promote insulin secretion (at lower Z-scores); Lost Glucose Dependence: In some cases, insulin secretion was promoted at both measured insulin concentrations. The conditions noted are these: INS-1E cells; 2.8 mM vs 16.7 mM glucose. The source says:
A high-throughput luminescent insulin secretion assay was developed and performed to identify compounds that amplified insulin secretion only in the presence of a permissive glucose environment (FIG. 3). The assay used in compound screening is described in International Patent Publication No. WO2013070796A3, PCT/US2012/063982, and in Burns et al., High-Throughput Luminescent Reporter of Insulin Secretion for Discovering Regulators of Pancreatic Beta-Cell Function. Cell Metab. 2015 Jan. 6; 21(1):126-37.
The assay is a luminescent insulin secretion assay created by inserting Gaussia luciferase within the C-peptide portion of the insulin prohormone. Gaussia luciferase was chosen because of its small size and bright luciferase signal. To ensure full activity of the luciferase, a version was used that was codon-optimized for expression in mammalian cells. The enzyme was flanked with additional cleavage sites for prohormone convertase 2 (PC2), such that no extra amino acids should be present on the ends of the enzyme after processing within the vesicles (FIG. 4). Rat (INS-1E; Merglen et al., 2004) beta-cell lines stably expressing the reporter construct were generated. Assays using this cell type are referred to herein as Luciferase Insulin Secretion Assay.
A search for glucose-dependent insulin secretagogues was conducting by screening 384,216 compounds at a single concentration (10 μM) in duplicate using the Luciferase Insulin Secretion Assay, to identify those that increase insulin secretion only in the presence of high glucose (11.1 mM) (FIG. 6). These assays were performed in 1536 well format. A Z′ factor of 0.35 was obtained with respect the positive control (300 μM IBMX). The cutoff value selected was 45% activation, which was 3-4 standard deviations above background (solid uppermost line; FIG. 6).
For standard secretion assays, INS-1E cells were plated in 96-well format, preincubated for 1 hr in Krebs Ringer Buffer (KRB) with 2.8 mM glucose, and then stimulated for 1 hr in fresh KRB containing varying amounts of glucose and compounds. Insulin or C-peptide concentration was determined using an ELISA (Mercodia), following the manufacturer's protocol. Luciferase activity was determined from the same samples by adding the coelenterazine substrate to the supernatant to a final concentration of 10 μM and reading on a standard plate reader (BioTek).
INS-1E cells were expanded to 80% confluence in their growth medium, washed once in PBS, and preincubated for 1 hr at 37° C. in KRB with 2.8 mM glucose. Cells were then dissociated, spun at 300×g for 2 min, resuspended in fresh KRB without glucose, and filtered through 40 μm mesh (Becton Dickinson). Next, the cells were counted and diluted in KRB to 1×10^6 cells per ml, and glucose was added as required for each experiment. Cells were then seeded in 384-well format, 3×10^4 cells in 30 μl per well, using a Multidrop Combi device (Thermo Scientific). Compounds were pinned into each well using a Vario robot (CyBio) to a final concentration of 30 μM, and the plates were then incubated for 2 hr at 37° C. For assays involving a transfer step, the plates were then centrifuged at 300×g for 2 min, and 20 μl of supernatant was transferred to a new 384-well plate. Coelenterazine substrate was then added to a final concentration of 10 μM, and luciferase activity was determined using a standard plate reader (BioTek).
(A reporter such as luciferase makes a cellular process visible.)
Turning to `COc1ccc(CCc2nc3cc(-c4c(C)noc4C)ccc3n2C[C@H](C)N2CCOCC2)cc1Cl` [CBP30, reference compound], the “glucose-dependent (glucose-stimulated) insulin secretion, luciferase reporter” value (from here on “glucose-dependent”) is “neither of the known bromodomain inhibitors (PF1 or CBP30) affect secretion to the extent of Compound 8”.
For the compound `Cc1cccc(C)c1NC(=O)c1ccc(OCc2c(C)noc2C)cc1` [Compound 16], the “glucose-dependent” value is “some positive effect on secretion”.
In the case of `Cc1ccccc1NC(=O)c1ccc(OCc2c(C)noc2C)cc1` [Compound 17], the “glucose-dependent” value was “some positive effect on secretion”.

The same experiment, now with this note: glucose dependence of insulin secretion; Z-score in the presence of 16.7 mM glucose.
For the compound `Cc1cccc(-c2cnc(-c3ccc(NCc4c(C)noc4C)cc3)[nH]2)c1C` [Compound 27], the outcome was Inactive.
Still for that read-out and setting: for `Cc1cccc(-c2cc(-c3ccc(NCc4c(C)noc4C)cc3)[nH]n2)c1C` [Compound 28] the value was “Inactive”.
Take `Cc1cccc(-c2ncc(-c3ccc(NCc4c(C)noc4C)cc3)[nH]2)c1C` [Compound 29]: the result was Inactive.
In the case of `Cc1cccc(-c2nc(C)c(-c3ccc(NCc4c(C)noc4C)cc3)[nH]2)c1C` [Compound 30], the result was Inactive.
For `Cc1cc(NCc2c(C)noc2C)ccc1-c1cnc(-c2cccc(C)c2C)[nH]1` [Compound 31], the outcome was Inactive.
Still for that read-out and setting: the entry for `Cc1cccc(NS(=O)(=O)c2ccc(NCc3c(C)noc3C)cc2)c1C` [Compound 32] is “Inactive”.
For the compound `Cc1cccc(NC(c2ccc(NCc3c(C)noc3C)cc2)C(F)(F)F)c1C` (centres unmarked) [Compound 33], the outcome was Inactive.
`Cc1cccc(-c2nc3cc(NCc4c(C)noc4C)ccc3[nH]2)c1C` [Compound 34]: the result was Inactive.
Take `Cc1cccc(-c2noc(-c3ccc(NCc4c(C)noc4C)cc3)n2)c1C` [Compound 35]: the result was Inactive.
As for `Cc1ccc2nc(-c3ccc(NCc4c(C)noc4C)cc3)[nH]c2c1C` [Compound 36], the outcome was Inactive.
In the case of `Cc1cccc(NC(=O)c2ccc(OCc3c(C)noc3C)cn2)c1C` [Compound 45], the outcome was Inactive.
In the case of `Cc1cccc(NC(=O)c2ccc(OCc3c(C)noc3C)cc2O)c1C` [Compound 46], the result was Inactive.
`Cc1cccc(NC(=O)c2ccc(OCc3cnoc3)cc2)c1C` [Compound 47, N-(2,3-Dimethyl-phenyl)-4-(isoxazol-4-ylmethoxy)-benzamide]: the outcome was Inactive.
On the same count and under the same terms, for `Cc1cccc(NC(=O)c2ccc(OCc3c(C)cnn3C)cc2)c1C` [Compound 48] the value was “Inactive”; for `Cc1cccc(NC(=O)c2ccc(OCc3c(C)ccnc3C)cc2)c1C` [Compound 50, N-(2,3-Dimethyl-phenyl)-4-(2,4-dimethyl-pyridin-3-ylmethoxy)-benzamide], “Inactive”.
For the compound `CC1=CC(=O)Cc2cc(COc3ccc(C(=O)Nc4cccc(C)c4C)cc3)ccc21` [Compound 51], the Activity result was “Partial activity, Lost Glucose Dependence”.
Same read-out and setting: the entry for `Cc1cccc(NC(=O)c2ccc(OC(C)c3c(C)noc3C)cc2)c1C` (centres unmarked) [Compound 52] is “Inactive”; for `Cc1cccc(NC(=O)c2ccc(OCc3cn(C)nc3C)cc2)c1C` [Compound 53] it is “Inactive”.
Same read-out and setting: the entry for `Cc1cccc(NC(=O)c2ccc(OCc3c(C)nn(C)c3C)cc2)c1C` [Compound 54] is “Inactive”; for `Cc1cccc(NC(=O)c2ccc(/C=C\c3c(C)noc3C)cc2)c1C` [Compound 55 (cis)] it is “Inactive”; for `Cc1cccc(NC(=O)c2ccc(/C=C/c3c(C)noc3C)cc2)c1C` [Compound 55] it is “Partial activity, Lost Glucose Dependence”.
Regarding `Cc1cccc(NC(=O)c2ccc(N(C)Cc3c(C)noc3C)cc2)c1C` [Compound 56], the outcome was Inactive.
With `Cc1cccc(NC(=O)c2ccc(CNc3c(C)noc3C)cc2)c1C` [Compound 57, 4-[(3,5-Dimethyl-isoxazol-4-ylamino)-methyl]-N-(2,3-dimethyl-phenyl)-benzamide], the outcome was Inactive.
Turning to `Cc1cccc(NC(=O)c2ccc(CN(C)c3c(C)noc3C)cc2)c1C` [Compound 58, 4-{[(3,5-Dimethyl-isoxazol-4-yl)-methyl-amino]-methyl}-N-(2,3-dimethyl-phenyl)-benzamide], the result was Inactive.
On to `Cc1cccc(NC(=O)c2ccc(OCc3ccnnc3)cc2)c1C` [Compound 59, N-(2,3-Dimethyl-phenyl)-4-(pyridazin-4-ylmethoxy)-benzamide], for which the result was Inactive.
On the same count and under the same terms, for `Cc1cccc(NC(=O)c2ccc(OCc3ccncc3)cc2)c1C` [Compound 60, N-(2,3-Dimethyl-phenyl)-4-(pyridin-4-ylmethoxy)-benzamide] the value was “Inactive”; for `Cc1cccc(NC(=O)c2ccc(OCc3cccnc3)cc2)c1C` [Compound 61, N-(2,3-Dimethyl-phenyl)-4-(pyridin-3-ylmethoxy)-benzamide], “Inactive”; for `Cc1cccc(NC(=O)c2ccc(OCc3ccccn3)cc2)c1C` [Compound 62], “Inactive”.
On the same count and under the same terms, for `Cc1cccc(NC(=O)c2ccc(OCc3cccnc3C)cc2)c1C` [Compound 63, N-(2,3-Dimethyl-phenyl)-4-(2-methyl-pyridin-3-ylmethoxy)-benzamide] the value was “Inactive”; for `Cc1ccncc1COc1ccc(C(=O)Nc2cccc(C)c2C)cc1` [Compound 64, N-(2,3-Dimethyl-phenyl)-4-(4-methyl-pyridin-3-ylmethoxy)-benzamide], “Inactive”.
As for `COc1ncccc1COc1ccc(C(=O)Nc2cccc(C)c2C)cc1` [Compound 65, N-(2,3-Dimethyl-phenyl)-4-(2-methoxy-pyridin-3-ylmethoxy)-benzamide], the outcome was Inactive.
As to `Cc1cccc(NC(=O)c2ccc(OCc3cnccc3Cl)cc2)c1C` [Compound 66, 4-(4-Chloro-pyridin-3-ylmethoxy)-N-(2,3-dimethyl-phenyl)-benzamide], the result was Inactive.
Turning to `Cc1cccc(NC(=O)c2ccc(OCc3cccnc3Cl)cc2)c1C` [Compound 67, 4-(2-Chloro-pyridin-3-ylmethoxy)-N-(2,3-dimethyl-phenyl)-benzamide], the outcome was Inactive.
Still for that read-out and setting: for `Cc1noc(C)c1COc1ccc(C(=O)Nc2cccc(Cl)c2Cl)cc1` [Compound 68, N-(2,3-Dichloro-phenyl)-4-(3,5-dimethyl-isoxazol-4-ylmethoxy)-benzamide] the value was “Active”.
On the same count and under the same terms, for `Cc1cccc(NC(=O)c2ccc(OCc3c(C)noc3C)cc2)c1C#N` [Compound 69, N-(2-Cyano-3-methyl-phenyl)-4-(3,5-dimethyl-isoxazol-4-ylmethoxy)-benzamide] the value was “Active”; for `Cc1cccc(NC(=O)c2ccc(OCc3c(C)noc3C)cc2)c1CO` [Compound 70], “Active”; for `Cc1noc(C)c1COc1ccc(C(=O)Nc2cccc(Cl)c2C)cc1` [Compound 72, N-(3-Chloro-2-methyl-phenyl)-4-(3,5-dimethyl-isoxazol-4-ylmethoxy)-benzamide], “Active”.
For the compound `Cc1noc(C)c1COc1ccc(C(=O)Nc2cccc3c2CCCC3)cc1` [Compound 73, 4-(3,5-Dimethyl-isoxazol-4-ylmethoxy)-N-(5,6,7,8-tetrahydro-naphthalen-1-yl)benzamide], the result was Inactive.
Consider `Cc1noc(C)c1COc1ccc(C(=O)Nc2cccc3ccccc23)cc1` [Compound 74, 4-(3,5-Dimethyl-isoxazol-4-ylmethoxy)-N-naphthalen-1-yl-benzamide], for which the outcome was Inactive.
On the same count and under the same terms, the entry for `Cc1cccc(NC(=O)c2ccc(OCc3c(C)noc3C)cc2)c1` [Compound 75] is “Inactive”; for `Cc1ccccc1NC(=O)c1ccc(OCc2c(C)noc2C)cc1` [Compound 76] it is “Inactive”.
